Values quoted from earlier work as cited in PMC6848746 (Psychopharmacology, 2019).
Where two headings read alike, the source gives them in different places.

Experiments:
[1] = target: 5-HT2B receptor; details: read-out: 5-HT2B receptor Ki, vs. [3H]LSD, cited from earlier work
[2] = tested on: rats; details: MMAI discrimination; ref Marona-Lewicka and Nichols 1994, 1998; cited from earlier work
[3] = tested on: rats; details: ref Bilsky et al. 1990, Marona-Lewicka et al. 1996; cited from earlier work
[4] = tested on: hDAT; details: cited from earlier work
[5] = target: hDAT; details: read-out: [125I]RTI-55 binding to hDAT Ki; ref Eshleman et al. 2017; cited from earlier work

NC1Cc2ccc(I)cc2C1 (stereo not drawn) [5-IAI, 5-iodo-2-aminoindan]
Ki ([1]; ref Iversen et al. (2013)): 70 nM

C[C@H](N)Cc1ccccc1 [(+)-amphetamine, reference compound]
substitution for MMAI [2]: did not substitute

CCN[C@@H](C)Cc1cccc(C(F)(F)F)c1 [(+)-fenfluramine, reference compound]
substitution for MMAI [2]: fully substituted

CC(N)Cc1ccc2c(c1)OCO2 (stereo not drawn) [MDA]
Ki ([1]; ref Setola et al. 2003): 100 nM

CNC(C)Cc1ccc2c(c1)OCO2 (stereo not drawn) [MDMA, 3,4-methylenedioxymethamphetamine, reference compound]
Ki ([1]; ref Setola et al. 2003): 500 nM
substitution for MMAI [2]: fully substituted
place conditioning effect [3]: conditioned place preference

CC[C@@H](Cc1ccc2c(c1)OCO2)NC [S-(+)-MBDB, S-(+)-N-methyl-1-(1,3-benzodioxol-5-yl)-2-butanamine, reference compound]
substitution for MMAI [2]: fully substituted

COC(=O)[C@H]1[C@@H](OC(=O)c2ccccc2)C[C@@H]2CC[C@H]1N2C [cocaine, reference compound]
substitution for MMAI [2]: did not substitute

CN[C@@H](C)Cc1ccccc1 [methamphetamine]
IC50 ([4]; read-out: [3H]DA uptake inhibition IC50, ref Eshleman et al. 2017): 66.7 nM
fold higher potency for [3H]DA uptake inhibition than [125I]RTI-55 displacement ([4]; ref Eshleman et al. 2017): about 70 fold
Ki [5]: 4580 nM
